Measurements reported in ChEMBL document CHEMBL3352227, “Synthesis, antimycobacterial and antibacterial evaluation of l-[(1R, 2S)-2-fluorocyclopropyl]fluoroquinolone derivatives containing an oxime functional moiety” (Eur J Med Chem, 2014).
≈ marks a conversion by molar mass, not a printed value.

system: Klebsiella pneumoniae; test: Antibacterial activity against extended-spectrum beta-lactamase producin Klebsiella pneumoniae 12-4 after 18 to 24 hrs by standard twofold serial dilution method; assay type: functional

Structure (SMILES)	MIC [µg/mL]
CO/N=C1/CN(c2nc3c(cc2F)c(=O)c(C(=O)O)cn3[C@@H]2C[C@@H]2F)[C@H]1CN	8 (≈ 20.3 µM)

system: Pseudomonas aeruginosa; test: Antibacterial activity against Pseudomonas aeruginosa 12-12 after 18 to 24 hrs by standard twofold serial dilution method; assay type: functional

Structure (SMILES)	MIC [µg/mL]
CO/N=C1/CN(c2nc3c(cc2F)c(=O)c(C(=O)O)cn3[C@@H]2C[C@@H]2F)[C@H]1CN	2 (≈ 5.08 µM)

system: Klebsiella pneumoniae; test: Antibacterial activity against extended-spectrum beta-lactamase producin Klebsiella pneumoniae 12-7 after 18 to 24 hrs by standard twofold serial dilution method; assay type: functional

Structure (SMILES)	MIC [µg/mL]
CO/N=C1/CN(c2nc3c(cc2F)c(=O)c(C(=O)O)cn3[C@@H]2C[C@@H]2F)[C@H]1CN	2 (≈ 5.08 µM)

system: Staphylococcus aureus; test: Antibacterial activity against methicillin-resistant Staphylococcus aureus 12-4 after 18 to 24 hrs by standard twofold serial dilution method; assay type: functional

Structure (SMILES)	MIC [µg/mL]
CO/N=C1/CN(c2nc3c(cc2F)c(=O)c(C(=O)O)cn3[C@@H]2C[C@@H]2F)[C@H]1CN	32 (≈ 81.4 µM)

system: Mycobacterium tuberculosis; test: Antimycobacterial activity against Mycobacterium tuberculosis H37Rv ATCC 27294 by MABA method; assay type: functional

Structure (SMILES)	MIC [µg/mL]
CO/N=C1/CN(c2nc3c(cc2F)c(=O)c(C(=O)O)cn3[C@@H]2C[C@@H]2F)[C@H]1CN	1 (≈ 2.54 µM)

system: Klebsiella pneumoniae; test: Antibacterial activity against Klebsiella pneumoniae 12-1 after 18 to 24 hrs by standard twofold serial dilution method; assay type: functional

Structure (SMILES)	MIC [µg/mL]
CO/N=C1/CN(c2nc3c(cc2F)c(=O)c(C(=O)O)cn3[C@@H]2C[C@@H]2F)[C@H]1CN	0.25 (≈ 0.636 µM)

system: Klebsiella pneumoniae; test: Antibacterial activity against extended-spectrum beta-lactamase producin Klebsiella pneumoniae 12-3 after 18 to 24 hrs by standard twofold serial dilution method; assay type: functional

Structure (SMILES)	MIC [µg/mL]
CO/N=C1/CN(c2nc3c(cc2F)c(=O)c(C(=O)O)cn3[C@@H]2C[C@@H]2F)[C@H]1CN	64 (≈ 163 µM)

system: Escherichia coli; test: Antibacterial activity against extended-spectrum beta-lactamase producing Escherichia coli 12-3 after 18 to 24 hrs by standard twofold serial dilution method; assay type: functional

Structure (SMILES)	MIC [µg/mL]
CO/N=C1/CN(c2nc3c(cc2F)c(=O)c(C(=O)O)cn3[C@@H]2C[C@@H]2F)[C@H]1CN	16 (≈ 40.7 µM)

system: Staphylococcus aureus; test: Antibacterial activity against methicillin-sensitive Staphylococcus aureus 12-1 after 18 to 24 hrs by standard twofold serial dilution method; assay type: functional

Structure (SMILES)	MIC [µg/mL]
CO/N=C1/CN(c2nc3c(cc2F)c(=O)c(C(=O)O)cn3[C@@H]2C[C@@H]2F)[C@H]1CN	0.06 (≈ 0.153 µM)

system: Staphylococcus aureus; test: Antibacterial activity against methicillin-resistant Staphylococcus aureus 12-5 after 18 to 24 hrs by standard twofold serial dilution method; assay type: functional

Structure (SMILES)	MIC [µg/mL]
CO/N=C1/CN(c2nc3c(cc2F)c(=O)c(C(=O)O)cn3[C@@H]2C[C@@H]2F)[C@H]1CN	32 (≈ 81.4 µM)

system: Staphylococcus aureus; test: Antibacterial activity against methicillin-sensitive Staphylococcus aureus 12-4 after 18 to 24 hrs by standard twofold serial dilution method; assay type: functional

Structure (SMILES)	MIC [µg/mL]
CO/N=C1/CN(c2nc3c(cc2F)c(=O)c(C(=O)O)cn3[C@@H]2C[C@@H]2F)[C@H]1CN	0.03 (≈ 0.0763 µM)

system: Escherichia coli; test: Antibacterial activity against Escherichia coli 12-1 after 18 to 24 hrs by standard twofold serial dilution method; assay type: functional

Structure (SMILES)	MIC [µg/mL]
CO/N=C1/CN(c2nc3c(cc2F)c(=O)c(C(=O)O)cn3[C@@H]2C[C@@H]2F)[C@H]1CN	1 (≈ 2.54 µM)

system: Staphylococcus epidermidis; test: Antibacterial activity against methicillin-sensitive Staphylococcus epidermidis 12-6 after 18 to 24 hrs by standard twofold serial dilution method; assay type: functional

Structure (SMILES)	MIC [µg/mL]
CO/N=C1/CN(c2nc3c(cc2F)c(=O)c(C(=O)O)cn3[C@@H]2C[C@@H]2F)[C@H]1CN	0.06 (≈ 0.153 µM)

system: Staphylococcus aureus; test: Antibacterial activity against methicillin-sensitive Staphylococcus aureus 12-5 after 18 to 24 hrs by standard twofold serial dilution method; assay type: functional

Structure (SMILES)	MIC [µg/mL]
CO/N=C1/CN(c2nc3c(cc2F)c(=O)c(C(=O)O)cn3[C@@H]2C[C@@H]2F)[C@H]1CN	0.06 (≈ 0.153 µM)

system: Staphylococcus epidermidis; test: Antibacterial activity against methicillin-sensitive Staphylococcus epidermidis 12-1 after 18 to 24 hrs by standard twofold serial dilution method; assay type: functional

Structure (SMILES)	MIC [µg/mL]
CO/N=C1/CN(c2nc3c(cc2F)c(=O)c(C(=O)O)cn3[C@@H]2C[C@@H]2F)[C@H]1CN	0.06 (≈ 0.153 µM)

system: Klebsiella pneumoniae; test: Antibacterial activity against Klebsiella pneumoniae 12-4 after 18 to 24 hrs by standard twofold serial dilution method; assay type: functional

Structure (SMILES)	MIC [µg/mL]
CO/N=C1/CN(c2nc3c(cc2F)c(=O)c(C(=O)O)cn3[C@@H]2C[C@@H]2F)[C@H]1CN	0.25 (≈ 0.636 µM)

system: Klebsiella pneumoniae; test: Antibacterial activity against Klebsiella pneumoniae 12-2 after 18 to 24 hrs by standard twofold serial dilution method; assay type: functional

Structure (SMILES)	MIC [µg/mL]
CO/N=C1/CN(c2nc3c(cc2F)c(=O)c(C(=O)O)cn3[C@@H]2C[C@@H]2F)[C@H]1CN	0.25 (≈ 0.636 µM)

system: Pseudomonas aeruginosa; test: Antibacterial activity against Pseudomonas aeruginosa 12-14 after 18 to 24 hrs by standard twofold serial dilution method; assay type: functional

Structure (SMILES)	MIC [µg/mL]
CO/N=C1/CN(c2nc3c(cc2F)c(=O)c(C(=O)O)cn3[C@@H]2C[C@@H]2F)[C@H]1CN	32 (≈ 81.4 µM)

system: Staphylococcus epidermidis; test: Antibacterial activity against methicillin-sensitive Staphylococcus epidermidis 12-8 after 18 to 24 hrs by standard twofold serial dilution method; assay type: functional

Structure (SMILES)	MIC [µg/mL]
CO/N=C1/CN(c2nc3c(cc2F)c(=O)c(C(=O)O)cn3[C@@H]2C[C@@H]2F)[C@H]1CN	2 (≈ 5.08 µM)

system: Staphylococcus epidermidis; test: Antibacterial activity against methicillin-resistant Staphylococcus epidermidis 12-6 after 18 to 24 hrs by standard twofold serial dilution method; assay type: functional

Structure (SMILES)	MIC [µg/mL]
CO/N=C1/CN(c2nc3c(cc2F)c(=O)c(C(=O)O)cn3[C@@H]2C[C@@H]2F)[C@H]1CN	4 (≈ 10.2 µM)

system: Escherichia coli; test: Antibacterial activity against extended-spectrum beta-lactamase producing Escherichia coli 12-14 after 18 to 24 hrs by standard twofold serial dilution method; assay type: functional

Structure (SMILES)	MIC [µg/mL]
CO/N=C1/CN(c2nc3c(cc2F)c(=O)c(C(=O)O)cn3[C@@H]2C[C@@H]2F)[C@H]1CN	128 (≈ 325 µM)

system: Staphylococcus epidermidis; test: Antibacterial activity against methicillin-sensitive Staphylococcus epidermidis 12-3 after 18 to 24 hrs by standard twofold serial dilution method; assay type: functional

Structure (SMILES)	MIC [µg/mL]
CO/N=C1/CN(c2nc3c(cc2F)c(=O)c(C(=O)O)cn3[C@@H]2C[C@@H]2F)[C@H]1CN	0.5 (≈ 1.27 µM)

system: Staphylococcus aureus; test: Antibacterial activity against methicillin-resistant Staphylococcus aureus 12-2 after 18 to 24 hrs by standard twofold serial dilution method; assay type: functional

Structure (SMILES)	MIC [µg/mL]
CO/N=C1/CN(c2nc3c(cc2F)c(=O)c(C(=O)O)cn3[C@@H]2C[C@@H]2F)[C@H]1CN	32 (≈ 81.4 µM)

system: Escherichia coli; test: Antibacterial activity against Escherichia coli ATCC 25922 after 18 to 24 hrs by standard twofold serial dilution method; assay type: functional

Structure (SMILES)	MIC [µg/mL]
CO/N=C1/CN(c2nc3c(cc2F)c(=O)c(C(=O)O)cn3[C@@H]2C[C@@H]2F)[C@H]1CN	0.06 (≈ 0.153 µM)

system: Escherichia coli; test: Antibacterial activity against extended-spectrum beta-lactamase producing Escherichia coli 12-15 after 18 to 24 hrs by standard twofold serial dilution method; assay type: functional

Structure (SMILES)	MIC [µg/mL]
CO/N=C1/CN(c2nc3c(cc2F)c(=O)c(C(=O)O)cn3[C@@H]2C[C@@H]2F)[C@H]1CN	> 128

system: Staphylococcus aureus; test: Antibacterial activity against Staphylococcus aureus ATCC 25923 after 18 to 24 hrs by standard twofold serial dilution method; assay type: functional

Structure (SMILES)	MIC [µg/mL]
CO/N=C1/CN(c2nc3c(cc2F)c(=O)c(C(=O)O)cn3[C@@H]2C[C@@H]2F)[C@H]1CN	0.125 (≈ 0.318 µM)

system: Streptococcus pneumoniae; test: Antibacterial activity against Streptococcus pneumoniae 12-18 after 18 to 24 hrs by standard twofold serial dilution method; assay type: functional

Structure (SMILES)	MIC [µg/mL]
CO/N=C1/CN(c2nc3c(cc2F)c(=O)c(C(=O)O)cn3[C@@H]2C[C@@H]2F)[C@H]1CN	2 (≈ 5.08 µM)

system: Klebsiella pneumoniae; test: Antibacterial activity against extended-spectrum beta-lactamase producin Klebsiella pneumoniae 12-14 after 18 to 24 hrs by standard twofold serial dilution method; assay type: functional

Structure (SMILES)	MIC [µg/mL]
CO/N=C1/CN(c2nc3c(cc2F)c(=O)c(C(=O)O)cn3[C@@H]2C[C@@H]2F)[C@H]1CN	128 (≈ 325 µM)

system: Escherichia coli; test: Antibacterial activity against extended-spectrum beta-lactamase producing Escherichia coli 12-2 after 18 to 24 hrs by standard twofold serial dilution method; assay type: functional

Structure (SMILES)	MIC [µg/mL]
CO/N=C1/CN(c2nc3c(cc2F)c(=O)c(C(=O)O)cn3[C@@H]2C[C@@H]2F)[C@H]1CN	128 (≈ 325 µM)

system: Staphylococcus aureus; test: Antibacterial activity against methicillin-sensitive Staphylococcus aureus 12-2 after 18 to 24 hrs by standard twofold serial dilution method; assay type: functional

Structure (SMILES)	MIC [µg/mL]
CO/N=C1/CN(c2nc3c(cc2F)c(=O)c(C(=O)O)cn3[C@@H]2C[C@@H]2F)[C@H]1CN	0.06 (≈ 0.153 µM)

system: Staphylococcus epidermidis; test: Antibacterial activity against methicillin-resistant Staphylococcus epidermidis 12-1 after 18 to 24 hrs by standard twofold serial dilution method; assay type: functional

Structure (SMILES)	MIC [µg/mL]
CO/N=C1/CN(c2nc3c(cc2F)c(=O)c(C(=O)O)cn3[C@@H]2C[C@@H]2F)[C@H]1CN	4 (≈ 10.2 µM)

system: Streptococcus pneumoniae; test: Antibacterial activity against Streptococcus pneumoniae ATCC 49619 after 18 to 24 hrs by standard twofold serial dilution method; assay type: functional

Structure (SMILES)	MIC [µg/mL]
CO/N=C1/CN(c2nc3c(cc2F)c(=O)c(C(=O)O)cn3[C@@H]2C[C@@H]2F)[C@H]1CN	0.5 (≈ 1.27 µM)
